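Test compounds were applied to cells in 96-well plates for 48 hours at 5 doses. Definition used: TGI = concentration required for complete inhibition of growth.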
Legend:
Assay in all cases: NCI-60 cell line screen, 48 h
[1] = system: KM12 colon
[2] = system: SK-MEL-5 melanoma
[3] = system: 786-0 renal
[4] = system: MCF7 breast
[5] = system: SK-MEL-2 melanoma
[6] = system: SN12C renal
[7] = system: MDA-MB-435
[8] = system: RXF 393 renal
[9] = system: SR leukemia
[10] = system: COLO 205 colon
[11] = system: T-47D breast
[12] = system: A498 renal
[13] = system: UO-31 renal
[14] = system: SF-539 CNS
[15] = system: NCI/ADR-RES ovarian
[16] = system: SK-MEL-28 melanoma
[17] = system: HT29 colon
[18] = system: SF-295 CNS
[19] = system: M14 melanoma
[20] = system: UACC-62 melanoma
[21] = system: SK-OV-3 ovarian
[22] = system: OVCAR-3 ovarian
[23] = system: SNB-19 CNS
[24] = system: CAKI-1 renal
[25] = system: MALME-3M melanoma
[26] = system: LOX IMVI melanoma
[27] = system: HS 578T breast
[28] = system: UACC-257 melanoma
[29] = system: HCT-116 colon
[30] = system: NCI-H226 lung
[31] = system: BT-549 breast
[32] = system: PC-3 prostate
[33] = system: OVCAR-8 ovarian
[34] = system: OVCAR-5 ovarian
[35] = system: HOP-92 NSCLC
[36] = system: RPMI-8226 leukemia
[37] = system: HL-60(TB) leukemia
[38] = system: ACHN renal
[39] = system: NCI-H522 lung
[40] = system: SF-268 CNS
[41] = system: IGROV1 ovarian
[42] = system: EKVX NSCLC
[43] = system: MDA-N
[44] = system: NCI-H23 lung
[45] = system: MDA-MB-231 breast
[46] = system: A549 NSCLC
[47] = system: NCI-H460 lung
[48] = system: HOP-62 NSCLC
[49] = system: TK-10 renal
[50] = system: HCT-15 colon
[51] = system: DU-145 prostate
[52] = system: CCRF-CEM leukemia
[53] = system: K-562 leukemia
[54] = system: MOLT-4 leukemia
[55] = system: SNB-75 CNS
[56] = system: OVCAR-4 ovarian
[57] = system: HCC-2998 colon
[58] = system: U251 CNS
[59] = system: SW-620 colon

Cc1nn(C(=O)c2ccccc2O)c2c1C(c1ccc([N+](=O)[O-])cc1)SC(N)=N2 (stereo not drawn)
TGI [1]: > 10 µM
TGI [2]: > 10 µM
TGI [3]: > 10 µM
TGI [4]: > 10 µM
TGI [5]: > 10 µM
TGI [6]: > 10 µM
TGI [7]: > 10 µM
TGI [8]: > 10 µM
TGI [9]: > 10 µM
TGI [10]: > 10 µM
TGI [11]: > 10 µM
TGI [12]: > 10 µM
TGI [13]: > 10 µM
TGI [14]: > 2.67 µM
TGI [15]: > 10 µM
TGI [16]: > 10 µM
TGI [17]: > 10 µM
TGI [18]: > 10 µM
TGI [19]: > 10 µM
TGI [20]: > 10 µM
TGI [21]: > 10 µM
TGI [22]: 9.95 µM
TGI [23]: > 10 µM
TGI [24]: > 10 µM
TGI [25]: > 10 µM
TGI [26]: > 10 µM
TGI [27]: > 10 µM
TGI [28]: > 10 µM
TGI [29]: > 10 µM
TGI [30]: > 9.22 µM
TGI [31]: > 10 µM
TGI [32]: > 10 µM
TGI [33]: > 10 µM
TGI [34]: > 10 µM
TGI [35]: > 10 µM
TGI [36]: > 10 µM
TGI [37]: > 10 µM
TGI [38]: > 8.37 µM
TGI [39]: > 10 µM
TGI [40]: > 10 µM
TGI [41]: > 10 µM
TGI [42]: > 10 µM
TGI [43]: > 10 µM
TGI [44]: > 10 µM
TGI [45]: > 10 µM
TGI [46]: > 10 µM
TGI [47]: > 10 µM
TGI [48]: > 10 µM
TGI [49]: > 10 µM
TGI [50]: > 10 µM
TGI [51]: > 10 µM
TGI [52]: > 9.13 µM
TGI [53]: > 10 µM
TGI [54]: > 10 µM
TGI [55]: > 8.41 µM
TGI [56]: > 10 µM
TGI [57]: > 10 µM
TGI [58]: > 10 µM
TGI [59]: > 10 µM

Fc1cccc(F)c1C1SCc2nc3cc(Cl)ccc3n21 (stereo not drawn)
TGI [1]: 72.9 µM
TGI [2]: 30.3 µM
TGI [3]: > 71.1 µM
TGI [4]: 34 µM
TGI [5]: > 100 µM
TGI [6]: > 100 µM
TGI [7]: > 100 µM
TGI [8]: > 100 µM
TGI [9]: 65.7 µM
TGI [10]: 36.6 µM
TGI [11]: > 100 µM
TGI [13]: > 47.2 µM
TGI [14]: > 100 µM
TGI [15]: > 100 µM
TGI [16]: > 100 µM
TGI [17]: 31.3 µM
TGI [18]: > 70.2 µM
TGI [19]: > 100 µM
TGI [20]: > 100 µM
TGI [21]: > 100 µM
TGI [22]: > 100 µM
TGI [23]: > 100 µM
TGI [24]: > 65.9 µM
TGI [25]: > 31.6 µM
TGI [26]: 40 µM
TGI [27]: > 73.4 µM
TGI [28]: > 60.6 µM
TGI [29]: 37 µM
TGI [31]: > 45.6 µM
TGI [32]: > 100 µM
TGI [33]: > 100 µM
TGI [34]: > 100 µM
TGI [35]: > 100 µM
TGI [36]: 69.2 µM
TGI [37]: 41.3 µM
TGI [38]: > 100 µM
TGI [39]: > 100 µM
TGI [40]: > 100 µM
TGI [41]: > 72.4 µM
TGI [42]: > 100 µM
TGI [43]: > 100 µM
TGI [44]: > 100 µM
TGI [45]: > 100 µM
TGI [46]: > 100 µM
TGI [47]: > 100 µM
TGI [48]: > 100 µM
TGI [49]: > 100 µM
TGI [50]: > 100 µM
TGI [51]: > 100 µM
TGI [52]: > 100 µM
TGI [53]: > 100 µM
TGI [54]: 54.7 µM
TGI [55]: > 100 µM
TGI [56]: > 100 µM
TGI [57]: 42.6 µM
TGI [58]: > 31.6 µM
TGI [59]: > 100 µM

O=C(O)C(O)c1ccc(F)cc1 (stereo not drawn)
TGI [1]: > 100 µM
TGI [3]: > 100 µM
TGI [4]: > 100 µM
TGI [5]: > 100 µM
TGI [6]: > 100 µM
TGI [7]: > 100 µM
TGI [8]: > 100 µM
TGI [9]: > 100 µM
TGI [11]: > 100 µM
TGI [12]: > 100 µM
TGI [13]: > 100 µM
TGI [15]: > 100 µM
TGI [16]: > 100 µM
TGI [17]: > 100 µM
TGI [18]: > 100 µM
TGI [19]: > 100 µM
TGI [20]: > 100 µM
TGI [21]: > 100 µM
TGI [22]: > 100 µM
TGI [23]: > 100 µM
TGI [24]: > 100 µM
TGI [25]: > 100 µM
TGI [26]: > 100 µM
TGI [27]: > 100 µM
TGI [28]: > 100 µM
TGI [29]: > 100 µM
TGI [31]: > 100 µM
TGI [32]: > 100 µM
TGI [33]: > 100 µM
TGI [34]: > 100 µM
TGI [35]: > 100 µM
TGI [36]: > 100 µM
TGI [38]: > 100 µM
TGI [39]: > 100 µM
TGI [40]: > 100 µM
TGI [41]: > 100 µM
TGI [42]: > 100 µM
TGI [43]: > 100 µM
TGI [44]: > 100 µM
TGI [45]: > 100 µM
TGI [46]: > 100 µM
TGI [47]: > 100 µM
TGI [48]: > 100 µM
TGI [49]: > 100 µM
TGI [50]: > 100 µM
TGI [51]: > 100 µM
TGI [53]: > 100 µM
TGI [54]: > 100 µM
TGI [55]: > 100 µM
TGI [56]: > 100 µM
TGI [58]: > 100 µM
TGI [59]: > 100 µM
